Assay results as given in patent US20240277902A1, “METHOD FOR MANUFACTURING PERIPHERAL NERVE-MIMICKING MICROTISSUE AND USES THEREOF” (INNOSTEM BIO, priority 2021, published 2024).

System: constituent cells in the peripheral nerve-mimicking microtissue
Assay: Cytoprotection by NAC and DEX in suspension culture (LIVE/DEAD, immunofluorescence)
Type: cell-based
Conditions: 1 mM NAC, 3 days
From the text: As a result of limitation in oxygen and nutrient exchange during the production process of peripheral nerve-mimicking microtissues, ROS accumulates in tissues, leading to cell damage and death. The Example is intended to present a cytoprotection method by dexamethasone (DEX) and N-acetylcysteine (NAC) to inhibit cell damage and death. PNSCs collected from the monolayer culture environment are suspended in a suspension culture medium at a density of 1.0E+06/mL. […] 1.0×10^5 cells per cm^2 area of a culture vessel is seeded in the ULA T75 flask (SPL Life Sciences) culture vessel. 1 mM NAC, 1 μM DEX, NAC and DEX were added simultaneously in 15 mL of suspension culture medium and cultured for 3 days. Cell death was assessed by LIVE/DEAD staining, and, for cell death, the survival rate was evaluated by calculating the total number of cells stained with DAPI and counting the number of cells that are positive for ethidium homodimer-1 (EthD-1). Moreover, the expression of p38 MAPK and cleaved caspase, which are factors that regulate cell death, and the degree of expression of p-Akt, an anti-cell death regulating factor, were evaluated through immunofluorescence staining.

CC(=O)N[C@@H](CS)C(=O)O [NAC, N-acetylcysteine]
cytoprotective effect on constituent cells in the microtissue (survival rate, LIVE/DEAD, EthD-1) (1 μM DEX, or both in suspension culture medium): protective effect | expression of Hif, p38 MAPK, and cleaved caspase (cell death proteins) (1 μM DEX, or both, immunofluorescence staining): significantly inhibit
